Results published in patent US8143245B2 (Pierre Fabre Medicament, priority 2006, dated 2012).
Marks after values point to notes of the source that are not given here.

What was measured:
[1] = system: pilocarpine-induced sialorrhea in the rat; assay: Pilocarpine-induced sialorrhea, inhibition of salivary secretion after p.o. administration; assay type: in vivo
Procedure: For the purpose of evaluating anticholinergic activity in the validated model of pilocarpine-induced sialorrhea in the rat, groups of animals were fasted and the next day the products were administered orally 90 minutes before intra-peritoneal injection of pilocarpine (0.5 mg.kg^-1). The compounds tested were administered in doses of 2.5, 5 and 10 mg.kg^-1. […] The animals were anaesthetized and then the salivary secretion was collected for 60 minutes, every ten minutes. The samples were then dried and weighed.

[2] = target: T1, human M3 muscarinic receptor (Homo sapiens, UniProt P20309); assay: V0162 receptor binding in vitro, CHO cells transfected with human M3, 4-DAMP; details: M3 (h)
T1 construct: expressed in transfected cells; host or cells: CHO cells, stably transfected
Description: (§1) The purpose of this study is to determine an affinity constant for the compound with respect to the three classes of human muscarinic receptors in vitro. The model chosen is the CHO cell stably transfected with cDNAs coding for each of the three human muscarinic receptors. […] Binding with respect to the receptors is defined as follows: the difference between overall binding and non-specific binding determined in the presence of excess cold ligand. The results are expressed as a percentage of the optimal binding obtained with the model ligand (100%). […] The inhibition constants (Ki) were calculated by means of the Cheng Prusoff equation (Ki=IC50/(1+L/KD)); where L is the radioligand concentration and KD the affinity of the radioligand for the receptor.

[3] = target: T2, human M1 muscarinic receptor (Homo sapiens, UniProt P11229); assay: V0162 receptor binding in vitro, CHO cells transfected with human M1, tritiated pirenzepine; details: M1(h)
T2 sequence (P11229 1-460): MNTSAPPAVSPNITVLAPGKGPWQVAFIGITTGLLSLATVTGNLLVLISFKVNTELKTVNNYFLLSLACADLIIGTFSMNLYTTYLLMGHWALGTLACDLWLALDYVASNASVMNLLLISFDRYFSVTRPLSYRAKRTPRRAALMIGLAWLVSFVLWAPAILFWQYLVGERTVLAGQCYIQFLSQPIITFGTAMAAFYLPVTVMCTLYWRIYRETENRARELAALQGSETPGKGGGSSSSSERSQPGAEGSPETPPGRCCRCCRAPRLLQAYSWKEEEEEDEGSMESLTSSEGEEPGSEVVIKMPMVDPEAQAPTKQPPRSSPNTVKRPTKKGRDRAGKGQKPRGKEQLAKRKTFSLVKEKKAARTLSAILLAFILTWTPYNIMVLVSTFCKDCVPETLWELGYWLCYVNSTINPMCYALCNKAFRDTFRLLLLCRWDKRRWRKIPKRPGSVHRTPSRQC
Description: as §1

[4] = Anticholinergic activity in vivo by intravenous administration
salivation = details: preclinical animal studies; cited from earlier work
[5] = system: M3 muscarinic receptors versus M2 muscarinic receptors; details: cited from earlier work
[6] = Transmucosal passage: repeated nasal administration of V0162 suspension, circulating level and tolerance; assay type: in vivo, rabbit; details: for Level of V0162: rabbit plasma, nasal 0.4% suspension twice per day
Procedure: 48 rabbits were treated nasally daily for 28 days with a suspension titrated at 0.4% mass/volume. […] Each group was made up of males and females equally. Nasal administration of the suspension was carried out twice per day for 28 days. Plasma samples were taken on D1, D2, D7, D28, D35. The samples were analyzed by an LC/MS/MS method validated by assay of V0162.

[7] = system: increase in intravesical pressure induced by bethanechol; assay: Intravesical pressure (cystomanometry) after bethanechol; assay type: in vivo; details: compared to oxybutyrine
Procedure: The objective of this study was to measure intravesical pressure and salivation, in the animal, for the purpose of testing the uroselectivity of the anti-muscarinics, when they are administered orally and vaginally. In order to evaluate intravesical pressure, the bladders of the animals were catheterized in order to make possible recording (cystomanometry: continuous recording of the vesical pressure). The products to be tested were administered either per os at a dose of 5 mg.Kg^-1 or by local application of a suspension of […] at 0.4% in a vehicle with a base of cyclodextrin and arginine. The jugular vein was also cannulated in order to administer a muscarinic agonist: bethanechol (200 μg/kg, iv). At each administration of bethanechol, the variation of vesical pressure (ΔPV, mmHg) and the quantity of saliva (mg) were evaluated and quantified. The positive control was made up of a group of animals treated with oxybutyrine (Ditropan®; 10, 100 and 1000 μg/kg, iv).

[8] = system: explants taken from the guinea pig (contractions induced by acetylcholine); assay: Anticholinergic effect ex vivo, contractions induced by acetylcholine in explants; details: for Response to Acetylcholine Max. Response (%): test curve, mean ± sem, n = 6
Procedure: The purpose of these experiments was to confirm the anticholinergic activity of […] on a living organ. In order to do so, explants taken from the guinea pig were kept alive. The morphology of the preparations was homogeneous from batch to batch. Each explant was placed in a survival chamber and immersed in a physiological solution of composition (mM): NaCl (118); KCl (4.7); […] CaCl2 (2.5); […] NaHCO3 (25); glucose (11), at a temperature of 37° C. and with a pH of 7.4. Before the test, the following agents were dispersed in the survival buffer in order to block non-specific responses to acetylcholine: […] (10^-6 M) to block β2-adrenergic responses; cimetidine (10^-5 M) to block type 2 histaminergic responses; methysergide (10^-6 M) to block serotoninergic responses and indomethacine (3×10^-6 M) to prevent the appearance of muscle tonus due to a release of prostaglandins by the preparation itself. At the time of acquisition, the tissues were connected to […] in order to continuously record the variations in tension. After 60 minutes of calibration of the preparations, the tissues were exposed to variable concentrations of […]. The contractions induced by acetylcholine as dose responses were carried out in order to determine the response of the preparation to the stimulation in the absence of the putative inhibitor.

[9] = p.o. 5 mg·kg^−1, comparison of racemic mixture and enantiomers (Table 4)
[10] = p.o. 2.5 mg·kg^−1, 90 min before pilocarpine
[11] = p.o. 10 mg·kg^−1, 90 min before pilocarpine

T1 sequence (P20309 whole entry): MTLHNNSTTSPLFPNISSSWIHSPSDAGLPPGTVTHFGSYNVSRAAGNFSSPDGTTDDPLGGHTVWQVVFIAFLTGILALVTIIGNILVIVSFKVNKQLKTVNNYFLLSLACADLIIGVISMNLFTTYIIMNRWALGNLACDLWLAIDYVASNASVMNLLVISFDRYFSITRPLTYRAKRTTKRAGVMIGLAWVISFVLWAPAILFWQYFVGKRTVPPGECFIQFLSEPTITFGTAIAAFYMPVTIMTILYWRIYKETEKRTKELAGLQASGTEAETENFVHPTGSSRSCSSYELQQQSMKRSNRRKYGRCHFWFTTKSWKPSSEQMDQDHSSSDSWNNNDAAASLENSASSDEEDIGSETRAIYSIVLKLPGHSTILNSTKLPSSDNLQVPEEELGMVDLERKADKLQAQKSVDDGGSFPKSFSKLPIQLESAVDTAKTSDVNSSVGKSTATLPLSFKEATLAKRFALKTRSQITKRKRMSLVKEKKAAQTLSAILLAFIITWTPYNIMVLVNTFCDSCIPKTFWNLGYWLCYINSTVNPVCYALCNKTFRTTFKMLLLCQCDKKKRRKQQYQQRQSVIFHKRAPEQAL

c1ccc2c(c1)Sc1ccccc1N2CC1CN2CCC1CC2 (racemic) [10-[(3R,3S)-1-azabicyclo[2.2.2]oct-3-ylmethyl]-10H-phenothiazine, reference compound]
Inhibition (%) [1, 9]: 73* %
nH (Hill coefficient) [2]: 1.2
nH (Hill coefficient) [3]: 0.8

c1ccc2c(c1)Sc1ccccc1N2C[C@@H]1CN2CCC1CC2 [10-[(3S)-1-azabicyclo[2.2.2]oct-3-ylmethyl]-10H-phenothiazine, reference compound]
Anticholinergic activity in vivo [4]: does not demonstrate clear activity
Inhibition (%) [1, 9]: −4%
nH (Hill coefficient) [2]: 1.0
nH (Hill coefficient) [3]: 1.1

CCN(CC)CC#CCOC(=O)C(O)(c1ccccc1)C1CCCCC1 (centres unmarked) [oxybutynine]
Effect on salivation (salivation): reduce salivation

Cc1ccc(O)c([C@H](CCN(C(C)C)C(C)C)c2ccccc2)c1 [tolterodine]
Effect on salivation (salivation): reduces salivation less
Selectivity between M3 and M2 receptor [5]: more specific for the M2 receptor than for the M3 receptor

CN1[C@@H]2CC[C@H]1C[C@@H](OC(=O)C(CO)c1ccccc1)C2 (some centres unmarked) [Atropine, reference compound]
Inhibition (%) ([1]; 1 mg·kg^−1, positive control): 98* %

NC(=O)C(c1ccccc1)(c1ccccc1)[C@@H]1CCN(CCc2ccc3c(c2)CCO3)C1 [darifenacine]
Effect on salivation (salivation): reduce salivation
Affinity for M3 muscarinic receptors higher than for M2 muscarinic receptors [5]: 7 times
Selectivity between M3 and M2 receptor [5]: more selective with respect to the M3 receptor than with respect to the M2

c1ccc2c(c1)Sc1ccccc1N2C[C@H]1CN2CCC1CC2 [V0162, 10-[(3R)-1-azabicyclo[2.2.2]oct-3-ylmethyl]-10H-phenothiazine]
Anticholinergic activity in vivo [4]: anticholinergic by intravenous administration
Inhibition (%) [1, 10]: 29%
Secretion [1, 10]: 735.6 mg
Secretion ([1]; p.o. 5 mg·kg^−1, 90 min before pilocarpine): 338.9 mg
Inhibition (%) ([1]; p.o. 5 mg·kg^−1, 90 min before pilocarpine (Table 3)): 67* %
Inhibition (%) [1, 9]: 77* %
Inhibition (%) [1, 11]: 95* %
Secretion [1, 11]: 45.1 mg
Level of V0162 ([6]; Day 1/4 hours after administration): 0.88 ng/mL
Level of V0162 ([6]; Day 1/before administration): BLQ
Level of V0162 ([6]; Day 2/before administration): 0.22 ng/mL
Level of V0162 ([6]; Day 7/before administration): 0.41 ng/mL
Level of V0162 ([6]; Day 28/4 hours after administration): 1.35 ng/mL
Level of V0162 ([6]; Day 28/24 hours after administration): 0.23 ng/mL
Level of V0162 ([6]; Day 35/before administration): BLQ
Toxic effects (histological plane, respiratory rhythm, heart rate, behaviour) ([6]; rabbit, in vivo): do not lead to toxic effects
Effects on the nasal mucosa ([6]; rabbit, nasal 0.4% suspension twice per day for 28 days): does not induce deleterious effects on the nasal mucosa
Circulating level ([6]; rabbit, nasal administration of a suspension): ~4 nM
Increase in intravesical pressure induced by bethanecol ([7]; local application of 0.4% suspension, bethanechol 200 μg/kg iv): significantly reduces the increase in intravesical pressure
Increase in intravesical pressure induced by bethanecol ([7]; per os 5 mg.Kg^−1, bethanechol 200 μg/kg iv): significantly reduces the increase in intravesical pressure
Response to Acetylcholine Max. Response (%) ([8]; V0162 30 nM): 98 ± 1%
Response to Acetylcholine Max. Response (%) ([8]; V0162 100 nM): 98 ± 1%
Response to Acetylcholine Max. Response (%) ([8]; V0162 300 nM): 98 ± 1%
Mode of action towards acetylcholine ([8]; ex vivo model): behaves like an antagonistic competitor of acetylcholine
